Earlier results on 1 compound are cited in patent US20170046504A1, “SYSTEM FOR DETERMINING A SUITABILITY OF AN ACTIVE INGREDIENT TO BE APPLIED TRANSDERMALLY OR TRANSMUCOSALLY AND CORRESPONDING METHOD” (LTS Lohmann Therapie-Systeme AG, priority 2014, published 2017).

Each structure is given as a SMILES string.

For series [1] the following is noted: assumed.
The conditions of series [2]: in vivo.

As to `CN1CCCC1c1cccnc1` (centres unmarked) [nicotine], the “efficiency for oral administration” value in series [1] is given as 20-45%. Further, the half-life period in series [2] is 1 to 6 h.
